Values quoted from earlier work in patent EP0502666B2, “Ingestible compositions containing water-soluble, high-viscosity grade cellulose ethers” (THE UNIVERSITY OF MICHIGAN, priority 1991, dated 1992).

SMILES: CN(C)C(=N)N=C(N)N [metformin]
- patients with side effects that lead to the withdrawal of the drug (in vivo): ~5%
- patients with gastrointestinal side effects, initially (usually transient): 5-20%
